Assay results reported in patent publication US20250032457A1, “METHODS OF TREATING ANDROGENIC ALOPECIA AND/OR SKIN CONDITIONS” (priority 2020, published 2025).

Tested on: scalp of a human subject (hairline recession, hair loss and thinning)
Experiment: Topical administration to the scalp of a human subject with hairline recession, hair loss and thinning
Details: 2% miconazole nitrate formulation, twice per day, observed after 3 months, one human subject, FIG. 2 vs FIG. 1
Text: Hairline recession, hair thinning, and hair loss were observed prior to administration.

Which results are given for Clc1ccc(COC(Cn2ccnc2)c2ccc(Cl)cc2Cl)c(Cl)c1 (centres unmarked) [miconazole]?
hairline recession (topical on scalp): reversal of hairline recession; hair growth on the scalp: promotion of hair growth elsewhere on the scalp
